Measured values: the NIST ThermoML archive (doi:10.1016/j.tca.2010.10.002)
± gives the expanded uncertainty stated by the source.

Conditions: Liquid, DSC

SMILES: CCCCCCCC/C=C\CCCCCCCC(=O)OCC [ethyl (Z)-9-octadeceneoate]
- vapor or sublimation pressure (514.61 K): 5.333 ± 0.53 kPa
- vapor or sublimation pressure (536.83 K): 9.333 ± 0.94 kPa

SMILES: CCCCCCCCCCCCCCCC(=O)OCC [ethyl hexadecanoate]
- vapor or sublimation pressure (502.27 K): 5.333 ± 0.53 kPa
- vapor or sublimation pressure (515.13 K): 9.333 ± 0.93 kPa

SMILES: CCCCC/C=C\C/C=C\CCCCCCCC(=O)OCC [ethyl linoleate]
- vapor or sublimation pressure (537.69 K): 9.333 ± 0.93 kPa

SMILES: CCCCCCCCCCCCCCCCCC(=O)OCC [ethyl octadecanoate]
- vapor or sublimation pressure (520.56 K): 5.333 ± 0.53 kPa

SMILES: CCCCCCCCCCCCCCCC(=O)OC [methyl hexadecanoate]
- vapor or sublimation pressure (486.57 K): 4 ± 0.4 kPa

SMILES: CCCCCCCCCCCCCC(=O)OC [methyl tetradecanoate]
- vapor or sublimation pressure (459.62 K): 4 ± 0.4 kPa
